This is an account of results in ChEMBL document CHEMBL1132301, “Carbonic anhydrase inhibitors. Synthesis of water-soluble, topically effective, intraocular pressure-lowering aromatic/heterocyclic sulfonamides containing cationic or anionic moieties: is the tail more important than the ring?” (J Med Chem, 1999).

Experiment [1] concerns the target T1, Carbonic anhydrase 4 (Bos taurus, UniProt Q95323).
T1 sequence (Q95323 whole entry): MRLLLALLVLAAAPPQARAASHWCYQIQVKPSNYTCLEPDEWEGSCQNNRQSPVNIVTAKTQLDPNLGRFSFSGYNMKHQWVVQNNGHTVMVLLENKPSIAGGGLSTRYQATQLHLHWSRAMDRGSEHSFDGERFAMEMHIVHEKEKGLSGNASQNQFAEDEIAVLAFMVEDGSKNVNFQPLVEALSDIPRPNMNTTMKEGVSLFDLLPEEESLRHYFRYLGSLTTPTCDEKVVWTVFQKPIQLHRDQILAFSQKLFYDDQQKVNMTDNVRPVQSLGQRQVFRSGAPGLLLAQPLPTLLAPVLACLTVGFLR
Description: Inhibitory activity against bovine lung microsomes carbonic anhydrase isozyme IV (bCA IV).

For experiment [2], the species on record is Oryctolagus cuniculus. It is filed as functional, Eye.
Description: In vivo fall of IOP of normotensive rabbits after treatment with 1 drop(50 microL) of 2% solution of CA inhibitor with pH value 5.5 into the eye at 0 min
Experiment [3] concerns the target T2, Carbonic anhydrase 1 (Homo sapiens, UniProt P00915).
Description: Inhibitory activity against human cloned carbonic anhydrase isozyme I (hCA I, cytosolic form).
The target in experiment [4] is T3, Carbonic anhydrase 2 (Homo sapiens, UniProt P00918).
Description: Inhibitory activity against human recombinant carbonic anhydrase II
Experiment [5] has as its target T3, Carbonic anhydrase 2. The source holds these as a separate data set.
Description: Inhibitory activity against human cloned Carbonic anhydrase II (hCA II, cytosolic form).
Experiment [6] has as its target T2, Carbonic anhydrase 1. This is another data set of the same source.
Description: Inhibition of human cloned Carbonic anhydrase I (hCA I,cytosolic form)
The species entered for experiment [7] is Oryctolagus cuniculus. Type of experiment: functional, Eye. This is another data set of the same source.
Description: In vivo fall of IOP of normotensive rabbits after treatment with 1 drop(50 microL) of 2% solution of CA inhibitor with pH value 5.5 into the eye at 90 min.
The species entered for experiment [8] is Oryctolagus cuniculus. It is filed as functional, Eye. This is another data set of the same source.
Description: In vivo fall of IOP of normotensive rabbits after treatment with 1 drop(50 microL) of 2% solution of CA inhibitor with pH value 5.5 into the eye at 60 min
The species entered for experiment [9] is Oryctolagus cuniculus. Type of experiment: functional, Eye. The source holds these as a separate data set.
Description: In vivo fall of IOP of normotensive rabbits after treatment with 1 drop(50 microL) of 2% solution of CA inhibitor with pH value 5.5 into the eye at 30 min

Molecules are shown by their SMILES.

T2 sequence (P00915 whole entry): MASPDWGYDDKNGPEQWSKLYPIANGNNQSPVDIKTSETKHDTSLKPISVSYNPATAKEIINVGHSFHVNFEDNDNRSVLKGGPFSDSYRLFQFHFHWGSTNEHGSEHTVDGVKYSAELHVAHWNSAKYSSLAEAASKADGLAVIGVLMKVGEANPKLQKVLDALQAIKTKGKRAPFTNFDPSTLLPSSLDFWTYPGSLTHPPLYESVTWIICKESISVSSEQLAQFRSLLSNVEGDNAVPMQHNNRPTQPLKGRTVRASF

The term Ki denotes a measure of affinity in units of concentration, obtained from inhibition or displacement. High values mean lower affinity, low ones higher affinity. Consider `NCCC(=O)Nc1nnc(S(N)(=O)=O)s1`, for which, in experiment [1], affinity was put at a Ki of 125 nM.

`NS(=O)(=O)c1nnc(NC(=O)c2cccc(C(=O)[O-])n2)s1.[Na+]`: the “Delta IOP” value in experiment [2] was 0 mmHg.

For `Nc1ccc(S(N)(=O)=O)cc1I`, the Ki came to 6000 nM in experiment [3] and 125 nM in experiment [1].

In the case of `Nc1c(S(N)(=O)=O)cc(S(N)(=O)=O)c(Cl)c1Cl`, the inhibition constant Ki in [3] stood at 6100 nM; in experiment [1] it was 175 nM.

Consider `NS(=O)(=O)c1ccc(CONC(=O)c2cccc(C(=O)O)n2)cc1`, for which the Ki in experiment [3] is 2050 nM; in experiment [4], 20 nM; in experiment [1] it was 120 nM.

As for `NS(=O)(=O)c1nc2ccc(OCCO)cc2s1`, the Ki in [3] was found to be […]; in experiment [1], 15 nM.

With `NS(=O)(=O)c1ccccc1N1C(=O)c2cccnc2C1=O`, the Ki is 21000 nM in experiment [3], 280 nM in [4] and 310 nM in experiment [1].

Take `NS(=O)(=O)c1nc2ccc(ONC(=O)c3cccc(C(=O)O)n3)cc2s1`: the Ki in experiment [3] came to 16 nM; in experiment [4], 2 nM; in experiment [1], 13 nM.

Turning to `NS(=O)(=O)c1nc2ccc(NC(=O)c3cccc(C(=O)O)n3)cc2s1`, the Ki was 18 nM in experiment [3], 3 nM in experiment [4] and 11 nM in [1].

For `NS(=O)(=O)c1ccc(N2C(=O)c3cccnc3C2=O)c(Cl)c1`, the inhibition constant Ki was determined as 620 nM in experiment [3], 44 nM in experiment [4] and 79 nM in [1].

As for `NS(=O)(=O)c1ccc(CNC(=O)c2cccc(C(=O)O)n2)cc1`, the Ki in experiment [4] is 36 nM.

Consider `NS(=O)(=O)c1nnc(NC(=O)CCNC(=O)c2cccc(C(=O)O)n2)s1`, for which the Ki in experiment [3] worked out at 19 nM; in experiment [4], 2 nM; in experiment [1] it was 9 nM.

As for `NS(=O)(=O)c1ccc(N2C(=O)c3cccnc3C2=O)c(Br)c1`, the Ki in experiment [3] came to 605 nM; in experiment [4], 31 nM; in experiment [1] it was 75 nM.

With `CCN(C(=O)c1cccnc1C(=O)O)C1CC(C)S(=O)(=O)c2sc(S(N)(=O)=O)cc21.CCN(C(=O)c1ncccc1C(=O)O)C1CC(C)S(=O)(=O)c2sc(S(N)(=O)=O)cc21` (centres undefined), the inhibition constant (Ki) came to 450 nM in experiment [3] and 18 nM in experiment [1].

For `NS(=O)(=O)c1ccc(NNC(=O)c2cccc(C(=O)O)n2)cc1`, the Ki in [3] was 20600 nM; in [4], 270 nM.

Turning to `NS(=O)(=O)c1ccccc1NC(=O)c1cccc(C(=O)O)n1`, the Ki in experiment [1] amounted to 300 nM.

In the case of `NS(=O)(=O)c1ccc(N2C(=O)c3cccnc3C2=O)c(I)c1`, the values for the Ki in experiment [3], in experiment [4] and in experiment [1] were 610 nM, 33 nM and 70 nM, respectively.

`NS(=O)(=O)c1cc(S(N)(=O)=O)c(NC(=O)c2cccc(C(=O)O)n2)cc1Cl` showed a Ki in [4] of 9 nM. That is a single-digit nanomolar value.

Turning to `NS(=O)(=O)c1ccc(N2C(=O)c3cccnc3C2=O)cc1`, the Ki in experiment [5] amounted to 132 nM; in [6] it was 15500 nM; in experiment [1], 170 nM.

In the case of `Nc1ccc2nc(S(N)(=O)=O)sc2c1`, the Ki was found to be 70 nM in experiment [6] and 19 nM in [1].

On to `NS(=O)(=O)c1nc2ccc(N3C(=O)c4cccnc4C3=O)cc2s1`, for which the Ki turned out to be 4 nM in experiment [5], 12 nM in experiment [6] and 9 nM in experiment [1].

As to `NS(=O)(=O)c1cc(S(N)(=O)=O)c(N2C(=O)c3cccnc3C2=O)c(Cl)c1Cl`, the Ki in experiment [5] is 12 nM; in experiment [6] it was 500 nM; in [1], 69 nM.

On to `Cl.NS(=O)(=O)c1ccc(NC(=O)c2cccc(C(=O)O)n2)c(F)c1`, for which the “Delta IOP” value in experiment [7] turned out to be 3.9 mmHg; in experiment [8], 4.2 mmHg; in experiment [9], 2.5 mmHg; in experiment [2], 0 mmHg.

With `Cl.NS(=O)(=O)c1nc2ccc(OCCONC(=O)c3cccc(C(=O)O)n3)cc2s1`, the “Delta IOP” value is 9 mmHg in [7], 7.2 mmHg in experiment [8], 4 mmHg in experiment [9] and 0 mmHg in experiment [2].

As to `Cl.NS(=O)(=O)c1nnc(N2C(=O)c3cccnc3C2=O)s1`, the “Delta IOP” value in experiment [7] was 8.1 mmHg; in experiment [8], 9 mmHg; in experiment [9], 5.4 mmHg; in [2], 0 mmHg.

Regarding `Cl.NS(=O)(=O)c1ccc(CCN2C(=O)c3cccnc3C2=O)cc1`, the “Delta IOP” value is given as 4.2 mmHg in [7], 4.8 mmHg in [8], 2.7 mmHg in experiment [9] and 0 mmHg in experiment [2].

With `CCN(C(=O)c1cccnc1C(=O)O)C1CC(C)S(=O)(=O)c2sc(S(N)(=O)=O)cc21.CCN(C(=O)c1ncccc1C(=O)O)C1CC(C)S(=O)(=O)c2sc(S(N)(=O)=O)cc21.Cl` (centres undefined), the “Delta IOP” value in [7] stood at 3.5 mmHg; in [8], 5.2 mmHg; in experiment [9], 2.4 mmHg; in [2], 0 mmHg.

In [1], `Nc1ccccc1S(N)(=O)=O` came in with a Ki of 1310 nM.

`Nc1ccc(S(N)(=O)=O)cc1Br`: in [1], the affinity, expressed as Ki, was 66 nM.

Turning to `NS(=O)(=O)c1ccc(CCO)cc1`, in [1], the Ki came to 450 nM.

Take `Nc1ccc(S(N)(=O)=O)cc1F`: the affinity in experiment [1] corresponds to a Ki of 180 nM. Against the preceding compound, the Ki is about 2.5-fold lower.

With `NS(=O)(=O)c1ccc(NC(=O)c2cccc(C(=O)O)n2)c(Br)c1`, the Ki in experiment [3] is 575 nM; in experiment [1], 69 nM.

Take `NS(=O)(=O)c1cccc(N2C(=O)c3cccnc3C2=O)c1`: the Ki in [5] was found to be 250 nM; in [6], 20000 nM; in [1], 305 nM.

Turning to `NS(=O)(=O)c1ccc(N2C(=O)c3cccnc3C2=O)c(F)c1`, the Ki in experiment [3] was determined as 540 nM; in experiment [4], 10 nM; in experiment [1] it was 46 nM.

As to `NS(=O)(=O)c1ccc(CCN2C(=O)c3cccnc3C2=O)cc1`, the results for the Ki in experiment [3], in experiment [4] and in experiment [1] were 845 nM, 9 nM and 54 nM, respectively.

Regarding `NS(=O)(=O)c1cc(S(N)(=O)=O)c(N2C(=O)c3cccnc3C2=O)cc1Cl`, the Ki in [5] came out at 9 nM; in experiment [6], 600 nM; in experiment [1], 60 nM.

With `NS(=O)(=O)c1ccc(CCNC(=O)c2cccc(C(=O)O)n2)cc1`, the Ki in experiment [4] came to 7 nM.

Consider `NS(=O)(=O)c1ccc(NC(=O)c2cccc(C(=O)O)n2)c(I)c1`, for which, in experiment [3], the Ki is 600 nM.

As to `NS(=O)(=O)c1nc2ccc(OCCONC(=O)c3cccc(C(=O)O)n3)cc2s1`, the Ki is 15 nM in experiment [3], 3 nM in [4] and 10 nM in experiment [1].

Take `NS(=O)(=O)c1ccc(CN2C(=O)c3cccnc3C2=O)cc1`: the inhibition constant (Ki) in [4] was found to be 42 nM; in experiment [1], 79 nM.

On to `NS(=O)(=O)c1cc(S(N)(=O)=O)c(NC(=O)c2cccc(C(=O)O)n2)c(Cl)c1Cl`, for which the figures for the Ki in experiment [3], in experiment [4] and in experiment [1] were 450 nM, 10 nM and 55 nM, respectively.

For the compound `NS(=O)(=O)c1ccc(CCONC(=O)c2cccc(C(=O)O)n2)cc1`, the Ki in experiment [3] came to 2000 nM; in experiment [4] it was 15 nM; in experiment [1] it was 105 nM.

As to `NS(=O)(=O)c1ccc(NC(=O)c2cccc(C(=O)O)n2)c(Cl)c1`, the results for the Ki in experiment [6] and in [1] were 600 nM and 66 nM, respectively.

With `NS(=O)(=O)c1ccc(NC(=O)c2cccc(C(=O)O)n2)cc1`, the Ki was 15000 nM in experiment [3] and 150 nM in experiment [1].

As for `NS(=O)(=O)c1ccc(NN2C(=O)c3cccnc3C2=O)cc1`, the Ki came to 21500 nM in experiment [3], 275 nM in experiment [4] and 300 nM in [1].

As for `NS(=O)(=O)c1cccc(NC(=O)c2cccc(C(=O)O)n2)c1`, the Ki in experiment [1] stood at 285 nM.
